Assay results: patent publication US4486411A, “Beta-lactamase inhibiting 6-beta-sulfonyloxypenicillanic acid derivatives” (Pfizer Inc., priority 1981, dated 1984)

How the values were obtained:
Enterobacter cloacae = test: MIC, brain heart infusion agar dilution; format: cell-based
Experimental: (§1) The procedure which is followed is the one recommended by the International Collaborative Study on Antibiotic Sensitivity Testing [Ericcson and Sherris, Acta. Pathologica et Microbiologia Scandinav, Supp. 217, Sections A and B: 64-68 (1971)], and employs brain heart infusion (BHI) agar and the inocula replicating device. Overnight growth tubes are diluted 100 fold for use as the standard inoculum (20,000-10,000 cells in approximately 0.002 ml. are placed on the agar surface; 20 ml. of BHI agar/dish). Twelve 2 fold dilutions of the test compound are employed, with initial concentration of the test drug being 200 mcg./ml. Single colonies are disregarded when reading plates after 18 hrs. at 37° C. The susceptibility (MIC) of the test organism is accepted as the lowest concentration of compound capable of producing complete inhibition of growth as judged by the naked eye. The manner in which the said compounds of the formula I increase the effectiveness of a beta-lactam antibiotic can be appreciated by reference to experiments in which the MIC of a given antibiotic alone, and a compound of the formula I alone, are measured. These MIC's are then compared with the MIC values obtained with a combination of the given antibiotic and the compound of the formula I wherein R^1 is hydrogen. […] The MIC values of combinations are measured using the method described by Barry and Sabath in "Manual of Clinical Microbiology", edited by Lenette, Spaulding and Truant, 2nd Edition, 1974, American Society for Microbiology.
(§2) Results of experiments illustrating that compounds of the formula II enhance the effectiveness of various beta-lactam antibiotics are reported in Tables I and II. […] It is obvious that the combination of compounds of the formula II with beta-lactam antibiotics will show synergistic activity against other bacterial strains, including some freshly isolated in the clinics. Determination of this activity is a matter of routine application of this type of testing.

Escherichia coli 129* = test: MIC, brain heart infusion agar dilution; format: cell-based
Experimental: as §1, §2

Escherichia coli 2* = test: MIC, brain heart infusion agar dilution; format: cell-based
Experimental: as §1, §2

Escherichia coli 266 = test: MIC, brain heart infusion agar dilution; format: cell-based
Experimental: as §1, §2

Klebsiella pneumonia = test: MIC, brain heart infusion agar dilution; format: cell-based
Experimental: as §1, §2

Proteus morgani = test: MIC, brain heart infusion agar dilution; format: cell-based
Experimental: as §1, §2

Pseudomonas aeruginosa = test: MIC, brain heart infusion agar dilution; format: cell-based
Experimental: as §1, §2

Serratia marcescens = test: MIC, brain heart infusion agar dilution; format: cell-based
Experimental: as §1, §2

[1] = test system: Staphylococcus aureus 400*; test: MIC, brain heart infusion agar dilution; format: cell-based; settings: resistant variant
Experimental: as §1, §2

Staphylococcus aureus 5 = test: MIC, brain heart infusion agar dilution; format: cell-based
Experimental: as §1, §2

[2] = target: Enterobacter cloacae 67B009 beta-lactamase (Enterobacter cloacae, UniProt P05364); test: Inhibition of cell free beta-lactamase (beta-lactam hydrolysis); format: biochemical; settings: pH 6.5, Penicillin G 33 μM; inhibitor 66 μM; pH 6.5, 37° C.
Experimental: (§3) The compounds of the present invention are also evaluated in vitro by their ability to inhibit the hydrolysis of certain beta-lactam antibiotics by beta-lactamase enzymes. The hydrolysis of ampicillin and penicillin G was determined by the microiodometric method of Novick [Biochem. J. 83, 236 (1962)].
(§4) Cephaloridine hydrolysis was measured by following the decrease in ultraviolet absorbance at 255 nm [O'Callaghan et al., Antimicrob. Agents Chemother. 1968, pp. 57-63 (1969)]. Conditions for both assays were idential: 0.5 M potassium phosphate, pH 6.5 and 37° C. Reactions were initiated by the addition of the cell-free beta-lactamase, except in the case of preincubation experiments in which the inhibitor and enzyme were incubated together in the assay mixture for 10 minutes before initiation of the reaction by addition of substrate. With the cell-free extracts of Staphylococcus aureus, Escherichia coli, Klebsiella pneumoniae and Pseudomonas aeruginosa, the substrate was ampicillin at 33 micro M (13 microg./ml.). Typical specific activities of the beta-lactamase preparations were, respectively, 6,019, 88,970, 260 and 76 micromol/hr. per mg. of protein.
(§5) Cell-free extracts were prepared by sonic treatment (using three 30-s bursts at 4° C. except for S. aureus, which was broken with a French press) of cultures grown in brain heart infusion on a rotary shaker incubator. For the S. aureus, P. aeruginosa, and E. cloacae strains, de novo synthesis of beta-lactamase was induced by growing a log-phase culture in the presence of a sublethal concentration of penicillin G at 100, 1,000, and 300 microg./ml, respectively, for 2.5 hr.

[3] = test system: Escherichia coli 51A129 beta-lactamase; test: as above; format: biochemical; settings: Ampicillin 33 μM; inhibitor 66 μM; pH 6.5, 37° C.
Experimental: as §3, §4, §5

[4] = test system: Klebsiella pneumoniae 53A129 beta-lactamase; test: as above; format: biochemical; settings: Ampicillin 33 μM; inhibitor 16.5 μM; pH 6.5, 37° C.
Experimental: as §3, §4, §5

[5] = target: T1, Staphylococcus aureus 01A400 beta-lactamase (Staphylococcus aureus, UniProt P00807); test: as above; format: biochemical; settings: pH 6.5, Ampicillin 33 μM, pH 6.5, 37° C.
T1 construct: Cell-free extracts were prepared by sonic treatment; endogenous in cells; host or cells: Staphylococcus aureus 01A400, penicillin G-induced culture, cell-free extract (French press)
Experimental: as §3, §4, §5

[6] = 1:1 mixture with ampicillin, resistant variant
[7] = 1:1 mixture with cefazolin, resistant variant
[8] = Escherichia coli, 18 h, read-out: MIC Alone

T1 sequence (P00807 25-281): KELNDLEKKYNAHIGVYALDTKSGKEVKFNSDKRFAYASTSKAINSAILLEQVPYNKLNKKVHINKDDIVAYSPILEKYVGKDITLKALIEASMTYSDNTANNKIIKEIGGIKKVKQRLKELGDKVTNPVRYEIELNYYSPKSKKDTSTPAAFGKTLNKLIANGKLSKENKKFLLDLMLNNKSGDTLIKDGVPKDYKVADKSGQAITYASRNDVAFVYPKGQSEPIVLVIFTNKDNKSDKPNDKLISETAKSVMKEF
Sequence of Enterobacter cloacae 67B009 beta-lactamase (P05364 21-381): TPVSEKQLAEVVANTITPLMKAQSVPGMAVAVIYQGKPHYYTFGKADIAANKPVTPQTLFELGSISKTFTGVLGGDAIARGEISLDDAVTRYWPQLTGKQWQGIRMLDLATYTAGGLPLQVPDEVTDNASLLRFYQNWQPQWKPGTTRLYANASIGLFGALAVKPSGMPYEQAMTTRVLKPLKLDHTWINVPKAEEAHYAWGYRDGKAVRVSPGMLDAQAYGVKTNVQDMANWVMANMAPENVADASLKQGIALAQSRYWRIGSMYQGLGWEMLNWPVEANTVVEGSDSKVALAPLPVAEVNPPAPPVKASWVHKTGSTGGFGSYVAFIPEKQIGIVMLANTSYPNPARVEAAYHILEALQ

SMILES: CC1(C)S[C@@H]2[C@H](OS(C)(=O)=O)C(=O)N2[C@H]1C(=O)O [Sodium Methanesulfonyloxypenicillanate, Sodium 6-beta-(Methanesulfonyloxy)penicillanate]
- MIC with Ampicillin (Enterobacter cloacae; 1:1 mixture with ampicillin): 100 µg/mL
- Response with Ampicillin (Enterobacter cloacae; 1:1 mixture with ampicillin): Synergy
- MIC with Cefazolin (Enterobacter cloacae; 1:1 mixture with cefazolin): > 100 µg/mL
- MIC (Enterobacter cloacae; Enterobacter cloacae, 18 h, alone, Table II gives two separate tests): > 200 µg/mL
- MIC with Ampicillin (Escherichia coli 129*; [6]): > 100 µg/mL
- MIC with Cefazolin (Escherichia coli 129*; [7]): 50 µg/mL
- Response with Cefazolin (Escherichia coli 129*; [7]): Antagonism
- MIC (Escherichia coli 129*; [8]): > 200 µg/mL
- MIC with Ampicillin (Escherichia coli 2*; [6]): 100 µg/mL
- Response with Ampicillin (Escherichia coli 2*; [6]): Additive
- MIC with Cefazolin (Escherichia coli 2*; [7]): 6.25 µg/mL
- MIC (Escherichia coli 2*; [8]): > 200 µg/mL
- MIC with Ampicillin (Escherichia coli 266; 1:1 mixture with ampicillin): 3.12 µg/mL
- Response with Ampicillin (Escherichia coli 266; 1:1 mixture with ampicillin): Antagonism
- MIC (Escherichia coli 266; Escherichia coli, 266, 18 h, alone, Table II gives two separate tests): > 200 µg/mL
- MIC with Ampicillin (Klebsiella pneumonia; 1:1 mixture with ampicillin): 100 µg/mL
- Response with Ampicillin (Klebsiella pneumonia; 1:1 mixture with ampicillin): Antagonism
- MIC with Cefazolin (Klebsiella pneumonia; 1:1 mixture with cefazolin): 1.56 µg/mL
- Response with Cefazolin (Klebsiella pneumonia; 1:1 mixture with cefazolin): No effect
- MIC (Klebsiella pneumonia; Klebsiella pneumoniae, 18 h, alone, Table II gives two separate tests): > 200 µg/mL
- MIC with Ampicillin (Proteus morgani; 1:1 mixture with ampicillin): 1.56 µg/mL
- MIC with Cefazolin (Proteus morgani; 1:1 mixture with cefazolin): 25 µg/mL
- Response with Cefazolin (Proteus morgani; 1:1 mixture with cefazolin): Synergy
- MIC (Proteus morgani; 18 h, alone, Table II gives two separate tests): > 200 µg/mL
- MIC with Ampicillin (Pseudomonas aeruginosa; 1:1 mixture with ampicillin): > 100 µg/mL
- MIC with Cefazolin (Pseudomonas aeruginosa; 1:1 mixture with cefazolin): > 100 µg/mL
- MIC (Pseudomonas aeruginosa; Pseudomonas aeruginosa, 18 h, alone, Table II gives two separate tests): > 200 µg/mL
- MIC with Ampicillin (Serratia marcescens; 1:1 mixture with ampicillin): 25 µg/mL
- Response with Ampicillin (Serratia marcescens; 1:1 mixture with ampicillin): Antagonism
- MIC with Cefazolin (Serratia marcescens; 1:1 mixture with cefazolin): 100 µg/mL
- Response with Cefazolin (Serratia marcescens; 1:1 mixture with cefazolin): Synergy
- MIC (Serratia marcescens; Serratia marcescens, 18 h, alone, Table II gives two separate tests): > 200 µg/mL
- MIC with Ampicillin ([1]; 1:1 mixture with ampicillin): 3.12 µg/mL
- Response with Ampicillin ([1]; 1:1 mixture with ampicillin): Additive
- MIC with Cefazolin ([1]; 1:1 mixture with cefazolin): ≥ 0.2 µg/mL
- Response with Cefazolin ([1]; 1:1 mixture with cefazolin): Synergy
- MIC ([1]; Staphylococcus aureus, 18 h, read-out: MIC Alone, alone, Table II gives two separate tests): 6.25 µg/mL
- MIC with Ampicillin (Staphylococcus aureus 5; 1:1 mixture with ampicillin): ≤ 0.2 µg/mL
- MIC (Staphylococcus aureus 5; Staphylococcus aureus, 5, alone, 18 hrs. at 37° C., Table II gives two separate tests, read-out: MIC Alone): 12.5 µg/mL
- inhibition at 66 µM [2]: 66.7%
- % Inhibition Beta-Lactam Hydrolysis [3]: 4.4%
- % Inhibition Beta-Lactam Hydrolysis [4]: 0%
- inhibition at 16.5 µM ([5]; inhibitor 16.5 μM): 100%
- inhibition at 66 µM ([5]; inhibitor 66 μM): 100%
